Patent US20210163404A1, “NOVEL UREA COMPOUNDS AND BIOISOSTERES THEREOF AND THEIR USE FOR TREATING INFLAMMATION AND INFLAMMATION-RELATED PATHOLOGIES” (UNIVERSITÉ LAVAL, priority 2017, published 2021)

Key:
[1] = tested on: HT-29 colon adenocarcinoma cells; test: Antiproliferative activity (NCI procedure, sulforhodamine B), HT-29; format: cell-based, human; conditions: Homo sapiens, HT-29, unit inferred, tested 781 nM to 100 μM, 48 h
Method: (§1) The antiproliferative activity of compounds 3a-b, 4a-e, 5a-e and 6a-e was subsequently evaluated using the human HT-29 colon adenocarcinoma and the A549 adenocarcinoma alveolar epithelial cancer cell lines, the HaCaT spontaneously transformed aneuploid immortal keratinocyte cell line and the HDFn neonatal dermal fibroblast cell line (Table 2). Cell growth inhibition was assessed according to the NCI/NIH Developmental Therapeutics Program.
(§2) The antiproliferative activity assay of all compounds was assessed using the procedure recommended by the National Cancer Institute for its drug screening program with minor modifications. Briefly, 96-well microtiter plates were seeded with 75 μL of a suspension of either HaCaT (5×10^3), HT-29 (3.0×10^3), A549 (3.0×10^3) or HDFn (3×10^3) cells per well in DMEM and incubated for 24 h at 37° C. in a moisture-saturated atmosphere containing 5% CO2. Compounds freshly solubilized in DMSO (40 mM) were diluted in fresh DMEM, and 75 μL aliquots containing serially diluted concentrations of the compound were added. Final compound concentrations ranged from 100 μM to 781 nM. DMSO was maintained at a concentration of <0.5% (v/v) to avoid any related cytotoxicity. Plates were subsequently incubated for 48 h. Cell growth was then stopped by the addition of cold trichloroacetic acid to the wells (10% w/v, final concentration), followed by a 1 h incubation period at 4° C. The plates were washed 4-times with water. A sulforhodamine B solution (75 μL; 0.1% w/v) in acetic acid (1%) was subsequently added to each well and the plates incubated over a 15 min period while at room temperature. After staining, any unbound dye was removed by washing 4-times with an acetic acid solution (1%). Bound dye was solubilized in 20 mM Tris base and the absorbance was measured at an optimal wavelength (530-568 nm) using a μQuant® Universal microplate spectrophotometer (BioTek, Winooski, Vt.). The measurements for treated cells were compared with measurements from control cell plates fixed on treatment day and the percentage of cell growth inhibition was calculated for each drug. The experiments were performed at least twice in triplicate. The assays were considered valid when the coefficient of variation for a given set of conditions and within the same experiment was <10%.

[2] = tested on: HaCaT keratinocyte cell line; test: Antiproliferative activity (NCI procedure, sulforhodamine B), HaCaT; format: cell-based, human; conditions: Homo sapiens, HaCaT, unit inferred, tested 781 nM to 100 μM, 48 h
Method: as §1, §2

[3] = tested on: HDFn neonatal dermal fibroblast cell line; test: Antiproliferative activity (NCI procedure, sulforhodamine B), HDFn; format: cell-based, human; conditions: Homo sapiens, Fibroblast, unit inferred, tested 781 nM to 100 μM, 48 h
Method: as §1, §2

[4] = tested on: A549 adenocarcinoma alveolar epithelial cancer cells; test: Antiproliferative activity (NCI procedure, sulforhodamine B), A549; format: cell-based, human; conditions: Homo sapiens, A549, unit inferred, tested 781 nM to 100 μM, 48 h
Method: as §1, §2

Compound	IC50 ([1]; Table 5) [µM]	IC50 ([2]; Table 5) [µM]	IC50 ([3]; Table 5) [µM]	IC50 ([4]; Table 5) [µM]	melting point [°C]	IC50 ([1]; Table 8) [µM]	IC50 ([2]; Table 8) [µM]	IC50 ([3]; Table 8) [µM]	IC50 ([4]; Table 8) [µM]	IC50 ([1]; Table 6) [µM]	IC50 ([2]; Table 6) [µM]	IC50 ([3]; Table 6) [µM]	IC50 ([4]; Table 6) [µM]
CC(C)(C)NC(=O)Nc1cccc(C2CCCCC2)c1 [Compound 17]	58.3	87.9	16.3	44.1	195 to 203								
CCCNC(=O)Nc1cccc(C(C)(C)C)c1 [Compound 12]	> 100	> 100	81.5	> 100	138 to 141								
S=C(Nc1cccc(I)c1)NC1CCCC1 [Compound 98]					136 to 147	23.4	32.8	16.4	21.9				
CC(C)NC(=O)Nc1cccc(C(C)(C)C)c1 [Compound 10]	85.2	> 100	92.4	96.8	146 to 149								
CC(C)(C)NC(=O)Nc1ccc(C2CCCCC2)cc1 [Compound 14]	25.5	35.4	17.2	18.5	182 to 189								
S=C(Nc1ccc(C2CCCCC2)cc1)NC1CCCC1 [Compound 89]					146 to 152	21.6	34.9	14.6	20				
S=C(NCC1CCC1)Nc1ccc(I)cc1 [Compound 92]					98 to 108	27.2	48.2	24.2	26.2				
O=C(NCC1CCC1)Nc1cccc(C2CCCCC2)c1 [Compound 68]					115 to 120					5.6	3.7	12	8
S=C(NCC1CCC1)Nc1ccc(C2CCCCC2)cc1 [Compound 88]					144 to 152	20.4	32.5	15.7	15.3				
CCCNC(=O)Nc1ccc(C2CCCCC2)cc1 [Compound 15]	> 100	> 100	59.1	> 100	166 to 168								
CCCNC(=O)Nc1cccc(C2CCCCC2)c1 [Compound 18]	24.1	32	23	21	131 to 134								
CCNC(=O)Nc1cccc(C2CCCCC2)c1 [Compound 66]					141 to 144					31	37	31	58
CCCNC(=O)Nc1cccc(I)c1 [Compound 6]	87.9	99.7	44.2	80	132 to 136								
CC(C)(C)c1cccc(NC(=S)NC2CCCC2)c1 [Compound 91]					170 to 180	21	31.8	16.3	19.4				
CC(C)(C)NC(=O)Nc1cccc(C(C)(C)C)c1 [Compound 11]	34.9	46.5	13.1	36.7	161 to 170								
CC(C)(C)c1cccc(NC(=S)NC2CC2)c1 [Compound 100]					125 to 140	75.7	> 100	> 100	70				
O=C(Nc1cccc(C2CCCCC2)c1)NC1CCCC1 [Compound 69]					132 to 137					8.9	4	7.6	12
CC(C)(C)c1cccc(NC(=S)NCC2CCC2)c1 [Compound 90]					105 to 111	20.2	34.3	18.2	17.5				
S=C(Nc1cccc(C2CCCCC2)c1)NC1CCCC1 [Compound 107]					129 to 142	5.7	7.9	3.8	6.2				
CC(C)(C)NC(=O)Nc1cccc(I)c1 [Compound 5]	81.3	> 100	17.4	61.8	189 to 193								
